Assay results: patent EP0181109B1, “N6-benzopyrano- and benzothiopyrano-adenosines” (WARNER-LAMBERT COMPANY, priority 1984, dated 1986)

Key:
[1] = biological target: T1, adenosine A2 receptor (Rattus norvegicus, UniProt P30543); test: Adenosine Receptor Binding - A2 Receptor Affinity (RBA2), [3H]NECA displacement in striatal membranes; conditions: 4 nM [3H]NECA, 50 nM N6-cyclopentyladenosine, 60 minutes at 25°C, read-out: RBA-2 (IC50, A2 receptor affinity)
T1 construct: Brains were thawed and then kept on ice while the striata were dissected out; tissue Pel-Freez (Rogers, Arkansas); host or cells: rat striatum (membranes)
T1 sequence (P30543 whole entry): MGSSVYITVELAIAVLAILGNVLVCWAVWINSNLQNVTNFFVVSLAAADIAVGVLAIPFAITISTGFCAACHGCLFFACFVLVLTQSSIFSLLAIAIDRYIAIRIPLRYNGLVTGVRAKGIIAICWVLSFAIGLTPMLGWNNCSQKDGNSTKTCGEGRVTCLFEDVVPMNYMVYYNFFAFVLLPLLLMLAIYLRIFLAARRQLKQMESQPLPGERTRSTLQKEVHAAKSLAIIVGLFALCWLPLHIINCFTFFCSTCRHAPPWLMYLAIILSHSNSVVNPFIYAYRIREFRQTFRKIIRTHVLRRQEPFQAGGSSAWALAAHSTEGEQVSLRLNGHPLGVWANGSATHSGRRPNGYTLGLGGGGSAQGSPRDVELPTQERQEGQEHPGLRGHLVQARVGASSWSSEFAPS
Method: Brains from 200-500 g mixed sex Sprague-Dawley rats were purchased from Pel-Freez (Rogers, Arkansas). Fresh brains from male Long-Evans hooded rats (Blue Spruce Farms, Altamont, NY) gave essentially identical results. Brains were thawed and then kept on ice while the striata were dissected out. Striata were disrupted in 10 vol of ice-cold 50 mM Tris·HCl (pH 7.7 at 25°C, pH 8.26 at 5°C) (Tris) for 30 seconds in a Polytron PT―10 (Brinkmann) at setting 5. The suspension was centrifuged at 50,000 xg for ten minutes, the supernatant discarded, the pellet resuspended in 10 vol ice-cold Tris as above, recentrifuged, resuspended at 1 g/5 ml, and stored in plastic vials at -70°C (stable for at least six months). When needed, tissue was thawed at room temperature, disrupted in a Polytron, and kept on ice until used.
All incubations were for 60 minutes at 25°C in 12 x 75 mm glass tubes containing 1 ml Tris with 5 mg original tissue weight of rat weight of rat striatal membranes, 4 nM [^3H]-N-ethyl adenosine-5'-carboxamide ([^3H]NECA), 50 nM N^s-cyclopentyladenosine (to eliminate A1 receptor binding), 10 mM MgCI2, 0.1 units/ml of adenosine deaminase and 1% dimethylsulfoxide. N^6-Cyclopentyladenosine was dissolved at 10 mM in 0.02 N HCI and diluted in Tris. Stock solutions and dilutions of N^6-cyclopentyladenosine could be stored at -20°C for several months. Test compounds were dissolved at 10 mM in dimethylsulfoxide on the same day as the experiment, and diluted in dimethylsulfoxide to 100x the final incubation concentration. Control incubations received an equal volume (10 µl) of dimethylsulfoxide; the resulting concentration of dimethylsulfoxide had no effect on binding. [^3H]NECA was diluted to 40 nM in Tris. The membrane suspension (5 mg/0.79 ml) contained sufficient MgC12 and adenosine deaminase to give 10 mM and 0.1 units/ml, respectively, final concentration in the incubation. […] After all additions, the rack of tubes was vortexed, and the tubes were then incubated for 60 min at 25°C in a shaking water bath. The rack of tubes was vortexed an additional time halfway through the incubation.
Incubations were terminated by filtration through 2.4 cm GF/B filters under reduced pressure. Each tube was filtered as follows: the contents of the tube were poured onto the filter, 4 ml of ice-cold Tris were added to the tube and the contents poured onto the filter, and the filter was washed twice with 4 ml of ice-cold Tris. The filtration was complete in about 12 seconds. Filters were put in scintillation vials, 8 ml of Formula 947 scintillation fluid added, and the vials left overnight, shaken, and counted in a liquid scintillation counter at 40% efficiency.
Nonspecific binding was defined as binding in the presence of […] N^6-cyclopentyladenosine, and specific binding was defined as total binding minus nonspecific binding. The IC50 was calculated by weighted nonlinear least squares curve-fitting to the mass action equation. [formula] • where Y is cpm bound • T is cpm total binding without drug • S is cpm specific binding without drug • D is the concentration of drug • and K is the IC50 of the drug Weighting factors were calculated under the assumption that the standard deviation was proportional to the predicted value of Y. Nonspecific binding was treated as a very large (infinite) concentration of drug in the computer analysis.

[2] = test system: spontaneous locomotion; test: Mouse Activity and Screen Test Procedure (MAST): locomotor activity in actophotometer; format: in vivo, Swiss-Webster male mice; conditions: one hour prior to testing
Method: (§1) Nine unfasted Swiss-Webster male mice weighing 20-30 g are equally divided into three groups for each drug dose to be tested. There is, data for each dose level was generated by three separate groups of three mice each.
(§2) A minimum of three dose levels (10, 30, and 100 mg/kg) are tested for each drug. Treatments are administered intraperitoneally one hour prior to testing. All dosages are calculated as parent compound and given in volumes of 10 ml/kg. Compounds are dissolved or suspended in 0.2% Methocel. Control animals are injected with Methocel.
The actophotometer consists of a cylindrical chamber whose center is occupied by another cylinder which contains the illumination for six photocells located on the perimeter of the chamber. Six light-beam interruptions equal one count. Locomotor activity is recorded by computer at ten minute intervals for 60 minutes.
Data: The data obtained from the screen test are expressed as percent of mice falling off the screen. Data derived from locomotor activity of drug treated mice are compared to the activity of vehicle treated animals and are expressed as percent inhibition of spontaneous locomotion. All percentages reported for inhibition of locomotion (LI) are based upon data accumulated for one hour. […] An overall dose rating is obtained by the following criteria:
LAD refers to the lowest dose at which an A rating is achieved. […] The compounds are identified in the Examples.

[3] = test system: mice falling off the inverted screen; test: Mouse Activity and Screen Test Procedure (MAST): screen test (ST); format: in vivo, Swiss-Webster male mice; conditions: one hour postinjection, percent of mice falling off the screen
Description: The compounds of the invention are new chemical substances which are useful as pharmaceutical agents for the treatment of psychoses. The antipsychotic activity of representative compounds of the invention was established by the Mouse Activity and Screen Test Procedure (MAST) described below.
as §1, §2
Testing: A two part testing procedure is started one hour postinjection. First, the screen test (ST) is performed (see Pharmac. Biochem. Behav. 6,351-353,1977). Briefly this test consists of placing mice on individual wire screens which are then rotated 180 degrees at the start of a 60 second observation period. The number of mice falling off the inverted screen is recorded.
Data: The data obtained from the screen test are expressed as percent of mice falling off the screen. Data derived from locomotor activity of drug treated mice are compared to the activity of vehicle treated animals and are expressed as percent inhibition of spontaneous locomotion. All percentages reported for inhibition of locomotion (LI) are based upon data accumulated for one hour. Both phases of testing are graded: A=60-100%; C=31-59%; and N=0-30%. An overall dose rating is obtained by the following criteria:
LAD refers to the lowest dose at which an A rating is achieved. […] Utilizing this procedure, an overall dose rating of A was obtained for the noted compound at the indicated dose. The compounds are identified in the Examples.

Row | SMILES | IC50 [1] | Inhibition of Mouse Locomotion Activity ([2]; 1 mg/kg intraperitoneally) | Inhibition of Mouse Locomotion Activity ([2]; 3 mg/kg intraperitoneally) | Inhibition of Mouse Locomotion Activity ([2]; 10 mg/kg intraperitoneally) | Inhibition of Mouse Locomotion Activity ([2]; 30 mg/kg intraperitoneally) | Inhibition of Mouse Locomotion Activity ([2]; 100 mg/kg intraperitoneally) | Screen Test Failure ([3]; 1 mg/kg intraperitoneally) | Screen Test Failure ([3]; 3 mg/kg intraperitoneally) | Screen Test Failure ([3]; 10 mg/kg intraperitoneally) | Screen Test Failure ([3]; 30 mg/kg intraperitoneally) | Screen Test Failure ([3]; 100 mg/kg intraperitoneally)
1 | Cc1cc2c(cc1C)OCC(Nc1ncnc3c1ncn3[C@@H]1O[C@H](CO)[C@@H](O)[C@H]1O)C2 (stereo partly shown) [Example 9, N^6-[6,7-Dimethyl-3-chromanylamino]adenosine] | 1240 nM | 11% | 34% | 77% | 96% | 97% | 0% | 0% | 22% | 44% | 77%
2 | Cc1ccc2c(c1C)OCC(Nc1ncnc3c1ncn3[C@@H]1O[C@H](CO)[C@@H](O)[C@H]1O)C2 (stereo partly shown) [Example 10, N^6-[7,8-Dimethyl-3-chromanylamino]adenosine] | 942 nM | -8% | 33% | 85% | 91% | 96% | 0% | 0% | 11% | 22% | 55%
3 | Cc1ccc2c(c1C)OC(C)C(Nc1ncnc3c1ncn3[C@@H]1O[C@H](CO)[C@@H](O)[C@H]1O)C2 (stereo partly shown) [Example 11] | 360 nM | 13% | 27% | 90% | 95% | 99% | 0% | 0% | 11% | 22% | 67%
4 | CC(C)(C)c1ccc2c(c1)OCC(Nc1ncnc3c1ncn3[C@@H]1O[C@H](CO)[C@@H](O)[C@H]1O)C2 (stereo partly shown) [Example 13, N^6-[7-t-Butyl-3-chromanylamino)adenosine] | 2940 nM |  |  | 50% | 82% | 88% |  |  | 0% | 0% | 22%
5 | COc1cc(OC)c2c(c1)OC(C)(C)CC2Nc1ncnc2c1ncn2[C@@H]1O[C@H](CO)[C@@H](O)[C@H]1O (stereo partly shown) [Example 14] | 37900 nM |  |  | 8% | 13% | 2% |  |  | 0% | 0% | 0%
6 | OC[C@H]1O[C@@H](n2cnc3c(NC4CCSc5ccccc54)ncnc32)[C@H](O)[C@@H]1O (stereo partly shown) [Example 15] | 86.5 nM |  | 88% | 95% | 97% |  |  | 11% | 22% | 55% | 
7 | O=S1(=O)CCC(Nc2ncnc3c2ncn3[C@@H]2O[C@H](CO)[C@@H](O)[C@H]2O)c2ccccc21 (stereo partly shown) [Example 16, N^6-[4-Benzothiopyran-1,1-dioxideamino]adenosine] | 1390 nM |  | 15% | 69% | 98% |  |  | 0% | 22% | 55% | 
